What was measured:
vitamin D receptor = target: T1, vitamin D receptor (Homo sapiens, UniProt P11473); details: agonism at the vitamin D receptor without 1α-hydroxylation; cited from earlier work
T1 sequence (P11473 1-427): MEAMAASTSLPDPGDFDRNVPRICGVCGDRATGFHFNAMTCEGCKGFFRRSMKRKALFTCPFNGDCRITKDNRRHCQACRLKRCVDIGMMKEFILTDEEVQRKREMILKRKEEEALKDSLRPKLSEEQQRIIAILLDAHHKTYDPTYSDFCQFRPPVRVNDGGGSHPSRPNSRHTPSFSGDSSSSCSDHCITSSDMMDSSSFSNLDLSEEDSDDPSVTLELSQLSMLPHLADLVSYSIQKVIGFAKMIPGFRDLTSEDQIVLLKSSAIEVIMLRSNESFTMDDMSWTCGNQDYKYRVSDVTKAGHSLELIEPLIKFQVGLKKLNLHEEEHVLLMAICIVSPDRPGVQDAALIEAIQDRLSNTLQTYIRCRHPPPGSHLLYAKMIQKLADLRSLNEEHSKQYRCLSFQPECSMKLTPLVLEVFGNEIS

[1] = Chemical stability of neat, crystalline vitamin D3 at 40° C. and various humidities; assay type: physicochemical; details: one week
Protocol: Stability of neat, crystalline vitamin D3 was investigated at 40° C. and 5%, 20%, 50%, 75% relative humidity (% RH) over the course of one week. This experiment was used as a baseline for comparison of vitamin D3 stability after formulation as indicated above. A pronounced dependence of degradation rate upon relative humidity was observed, as depicted in FIG. 1. Under low humidity conditions, loss of active occurred at a rate of 0.58%/day and 0.76%/day at 5% RH and 20% RH, respectively.

[2] = Stability of amorphous vitamin D3 cast as a thin film; assay type: physicochemical
Text: In an additional experiment, vitamin D3 was cast as a thin film by evaporating a solution of vitamin D in ethyl acetate and the stability of this amorphous form of vitamin D was also investigated. […] The results of this and the previous experiment highlight the inherently low stability of vitamin D and the impact of both humidity and physical form (crystalline vs. amorphous) on degradation rates.

SMILES | intrinsic activity, fold lower than that of 1α,25-dihydroxy-cholecalciferol (vitamin D receptor) | rate of loss of active ([1]; 5% RH) [%/day] | rate of loss of active ([1]; 20% RH) [%/day] | degradation rate ([1]; 50% RH) [%/day] | degradation rate ([1]; 75% RH) [%/day] | degradation after 3 days ([2]; 25° C.) | degradation after 3 days ([2]; 40° C.) | degradation after 3 days ([2]; 40° C./75% RH)
C=C1CC[C@H](O)C/C1=C/C=C1\CCC[C@]2(C)[C@@H]([C@H](C)CCCC(C)(C)O)CC[C@@H]12 [25-hydroxy-cholecalciferol] | about 100 fold | – | – | – | – | – | – | –
C=C1CC[C@H](O)C/C1=C/C=C1\CCC[C@]2(C)[C@@H]([C@H](C)CCCC(C)C)CC[C@@H]12 [vitamin D3, cholecalciferol] | – | 0.58 | 0.76 | 5.5 | 10.8 | Essentially complete degradation | Essentially complete degradation | Essentially complete degradation

Reference: patent US20060019933A1, “Process for preparing stabilized vitamin D” (priority 2004, published 2006)
